The text below walks through data of patent publication US6699477B2, “EBV CTL epitopes” (The Council of the Queensland Institute of Medical Research, priority 1996, dated 2004).

Read-outs that look alike come from different tables or passages of the source.

Assay [1] deals with EBV. The settings on record: Table 4; cited from earlier work.
The test system of assay [2] is HLA. As to conditions: Table 4; cited from earlier work.
In another assay the test system is CTL culture B5. Nature of the assay: Identification of specific peptide target, overlapping peptides on autologous PHA blasts. It is filed as cell-based, human. The settings on record: peptides preincubated with autologous PHA blasts. The method, then: (§1) Limiting dilution cultures were established by distributing PBL from the fourth bleed in 24 replicates at 2×10^4 cells per well in 96-well round-bottomed microtitre plates. Doubling dilutions were made to a final concentration of 1.6×10^2 per well. Approximately 1×10^4 γ-irradiated (8000 rads) autologous type B (EW-Ag-876) LCLs were added to each well as both feeder and stimulator cells to a total volume of 100 μl. Cultures were fed on days 4 and 7 with 50 μl of T cell growth medium and assayed on day 10 or later. The plates were subcultured and maintained in T cell growth medium and stimulated with γ-irradiated EW-Ag-876 LCLs. Initial assays were against type A and type B LCLs and subsequently against peptide-coated PHA-blasts or LCLs. Precursor frequencies were determined by a modification of the method of maximum likelihood estimation (11). Assessment of peptide specific activity. For determination of the antigenic specificity at the peptide level, a set of 20-mer overlapping peptides of EBNA-6B (residues 100-1069 (46)) was prepared using a kit and software distributed by Chiron Mimotopes (Chiron Corporation, Sydney, Australia). Nine-mer and 10-mer overlapping peptides with unblocked C and N termini were manufactured by Chiron Mimotopes. Labelled target cells were preincubated with overlapping peptides in the 96-well trays for 30-60 minutes before adding effectors. […]

Another assay has as its system B-type epitope CTL. Nature of the assay: HLA-restriction CTL assay of type B-specific epitope, cell lines with or without specific peptide. It is filed as cell-based, human. The settings on record: QNGALAINTF specific CTLs, peptide-incubated targets of known HLA specificity. The method, then: as §1
For assay [3], the system named is EBV. Nature of the assay: EBV type of CTL epitopes of the invention (Table 3). It is filed as cell-based, Epstein-Barr virus.
A further assay relates to T cell precursors. Description: Limiting dilution cultures, epitope specific precursor frequency. The settings on record: PBL of donor stimulated by autologous type B cells; assayed 12 weeks later.
Assay [4] concerns HLA. The settings on record: Table 3.

AVLLHEESM: in the assay on EBV [1], the “EBV Type” value is “Type 1”. Take CLGGLLTMV: the “EBV Type” value in the assay on EBV [1] is recorded as “Type 1 & 2”. In the assay on HLA [2], the “HLA Rest.” value is “HLA A2”.

For the sequence DEPASTEPVHDQLL, the “EBV Type” value in the assay with EBV [1] is reported as “Type 1”. As to DTPLIPLTIF, in the assay on EBV [1], the “EBV Type” value is “Type 1”. Turning to EENLLDFVRF, in the assay with EBV [1], the “EBV Type” value is on record as “Type 1 & 2”. On to FLRGRAYGL, for which, in the assay on EBV [1], the “EBV Type” value is on record as “Type 1”. The “HLA Rest.” value in the assay with HLA [2] is “HLA B8”.

Take HLAAQGMAY: in the assay with EBV [1], the “EBV Type” value is “Type 1”. For KEHVIQNAF, the “EBV Type” value with EBV [1] was “Type 1”. Turning to LPGPQVTAVLLHEES, the “EBV Type” value in the assay on EBV [1] is given as “Type 1”. With NPTQAPVIQLVHAVY, the “EBV Type” value in the assay with EBV [1] is “Type 1”. For the sequence QNAARTLNTF [reference compound], in the assay on CTL culture B5, the “Recognition by type B specific culture B5” value is given as “nonreactive”. Regarding QNGALAINTF, the “HLA restriction” value with B-type epitope CTL is “B62 (B15)-restricted”. Further, the “Recognition by type B specific culture B5” value with CTL culture B5 is on record as “minimal epitope”. For the same sequence, the “EBV Type” value in the assay on EBV [3] is recorded as “Type 2”. Also, the “Frequency (epitope specific T cell precursors)” value in the assay on T cell precursors is listed as 1/16395. Turning to QPRAPIRPI, the “EBV Type” value in the assay with EBV [1] is reported as “Type 1 & 2”. For the same sequence, the “HLA Rest.” value in the assay on HLA [2] was “HLA B7”. QVKWRMTTL: the “EBV Type” value in the assay on EBV [3] is on record as “Type 2”. Turning to RLRAEAGVK, the “EBV Type” value in the assay on EBV [1] is listed as “Type 1”. Also, in the assay on HLA [2], the “HLA Rest.” value is “HLA A3”. As to RPPIFIRRL, in the assay with EBV [1], the “EBV Type” value is “Type 1”. In addition, the “HLA Rest.” value in the assay with HLA [2] is “HLA B7”. With RRIYDLIKL, in the assay on EBV [3], the “EBV Type” value is recorded as “Type 1”. For the sequence RRRWRRLTV, in the assay on EBV [1], the “EBV Type” value is given as “Type 1”.

As for RYSIFFDY, in the assay on EBV [1], the “EBV Type” value is recorded as “Type 1”. As for SVRDRLARL, the “EBV Type” value in the assay on EBV [1] is listed as “Type 1 & 2”. Moreover, the “HLA Rest.” value with HLA [2] is listed as “HLA A2”. For the sequence TSLYNLRRGTALA, in the assay on EBV [1], the “EBV Type” value is listed as “Type 1 & 2”. Further, the “HLA Rest.” value with HLA [2] is “HLA DR1”. As to TVFYNIPPMPL, the “EBV Type” value in the assay on EBV [1] is recorded as “Type 1”. In addition, the “HLA Rest.” value in the assay on HLA [2] was “HLA DQ2”. Take TYSAGIVQI: the “EBV Type” value in the assay on EBV [3] was “Type 1”.

On to VEITPYEPTG, for which the “EBV Type” value in the assay on EBV [3] was “Type 1”.

As for VEITPYEPTW, in the assay on EBV [3], the “EBV Type” value is reported as “Type 1”. For the sequence VEITPYKPTW, the “EBV Type” value with EBV [1] is reported as “Type 1”. Consider VELTPYKPTW, for which, in the assay on EBV [3], the “EBV Type” value is “Type 1”. The same measure, in the same setting: the entry for VFSDGRVAC is “Type 1”; for VPAPAGPIV it is “Type 1”. Consider VPAPPVGPIV, for which the “EBV Type” value with EBV [3] is “Type 1”. In the case of VSFIEFVGW, in the assay on EBV [1], the “EBV Type” value is listed as “Type 1”. Take VSSDGLVAC: the “EBV Type” value with EBV [3] was “Type 1”. On the same count and under the same terms, the entry for VSSDGQVAC is “Type 1”. Turning to VSSDGRVAC, the “EBV Type” value in the assay on EBV [3] is “Type 1”. On the same count and under the same terms, then VSSDGRVPC, with “Type 1”. On to VSSDGRVVC, for which the “EBV Type” value with EBV [3] is given as “Type 1”. The “HLA restriction” value with HLA [4] is reported as “HLA A29”. Take VSSEGRVAC: the “EBV Type” value with EBV [3] is “Type 1”.
